Tests used:
[1] = Stability in human liver microsomes (NADPH-dependent); type: in vitro ADME
From the text: Liver microsomes are an in vitro model for in vivo metabolism and elimination of a drug by the liver (and gut) cytochrome P450 system. A compound's stability in liver microsomes in vitro is predictive of its metabolism and elimination in vivo. We examined the stability of SX-682 in liver microsomes together with several other cogeners to quantify the microsomal stability of SX-682 and identify potential structure-activity relationships (SAR) predictive of stability or instability (see Figure 5).
The compounds were incubated in duplicate with human liver microsomes at 37°C. The reaction contained microsomal protein in 100 mM potassium phosphate, 2 mM NADPH, 3 mM MgCl2, pH 7.4. A control was run for each compound omitting NADPH to detect NADPH-independent degradation. An aliquot was removed from each experimental and control reaction at 0, 10, 20, 30, and 60 minutes and mixed with an equal volume of ice-cold Stop Solution (0.3% acetic acid in acetonitrile containing haloperidol, diclofenac, or other internal standard). Stopped reactions were incubated for at least ten minutes at -20°C, and an additional volume of water was added. The samples were centrifuged to remove precipitated protein, and the supernatants were analyzed by LCMS/MS to quantitate the remaining compound. Data were converted to percent remaining by dividing by the time zero concentration value. Data were fit to a first-order decay model to determine half-life. Intrinsic clearance was calculated from the half-life and the protein concentrations: CLint = ln(2)/(t½ [microsomal protein]).

[2] = Stability in human plasma; type: in vitro ADME
Protocol: The in vitro stability of SX-682 and the cogeners of Metabolic Stability Example 1 (Figure 5) were further studied in human plasma. The reactions were initiated by the addition of 5 µL of a 500 µM DMSO stock solution to 495 µL of preheated plasma solution to yield a final concentration of 5 µM. The assays were performed in a heat block at 37°C and conducted in duplicate. Samples (50 µL) were taken at 0, 30, 60, 120, 240 min and added to 150 µL acetonitrile in order to deproteinize the plasma. The samples were subjected to vortex mixing for 1 min and then centrifugation for 15 min at 14,000 rpm. The clear supernatants were analyzed by LC-MS.
The in vitro plasma half life (t½) was calculated using the expression t½ = ln(2)/b, where b is the slope found in the linear fit of the natural logarithm of the fraction remaining of the parent compound vs. incubation time.

[3] = system: neutrophils; assay: Ozone rat model of pulmonary inflammation (neutrophil influx into BALF); type: in vivo, Sprague-Dawley rats; conditions: for influx of neutrophils into the lungs (BALF) as compared to control rats treated with vehicle only: 1 mg/kg intravenously once at t = 0, 1 ppm ozone for 4 hours, BALF at t = 24 hours, n = 4 per cohort
Protocol: SX-682 was assayed in an in vivo rat model of pulmonary inflammation. Activity in this model of pulmonary inflammation provides evidence that supports the use of SX-682 in the treatment of a number of pulmonary inflammatory diseases, including chronic obstructive pulmonary disease (COPD) and bronchopulmonary dysplasia (BPD). In this experiment, Sprague-Dawley rats (n = 4 per cohort) were dosed intravenously only once at t = 0 with either vehicle control (dimethylformamide/PEG400/saline, 40:40:20), positive inhibitor control (SX-576, 1 mg/kg) or the test compound (SX-682, 1 mg/kg). The rats were then placed in air (negative exposure group; vehicle control only) or 1 ppm ozone (positive exposure group; vehicle control, positive inhibitor control SX-576, and test compound SX-682) for 4 hours. The rats were then sacrificed at t = 24 hours, and the bronchoalveolar lavage fluid (BALF) was collected. The cells were spun down, stained with Wright-Giemsa and counted. In the negative exposure group, no neutrophils were observed when stained. In the ozone exposed rats treated with vehicle however, there was a brisk influx of neutrophils of approximately 14,000 per mL of BALF (see Figure 4).

[4] = system: neutrophils; assay: Murine air-pouch model of inflammation; type: in vivo; conditions: depending on the dose given
[5] = biological target: T1, CXCR2 (Homo sapiens, UniProt P25025); assay: Wash-resistant inhibition of CXCL8-mediated calcium flux after inhibitor washout, CXCR2 RBL cells; type: cell-based; conditions: RBL cells stably transfected with CXCR2; 30 minutes incubation at 37°C with 0.4, 2, 10 µM, then washout; time points up to 12 h
T1 construct: expressed in transfected cells; host or cells: RBL cells (stably transfected)
T1 sequence (P25025 1-360): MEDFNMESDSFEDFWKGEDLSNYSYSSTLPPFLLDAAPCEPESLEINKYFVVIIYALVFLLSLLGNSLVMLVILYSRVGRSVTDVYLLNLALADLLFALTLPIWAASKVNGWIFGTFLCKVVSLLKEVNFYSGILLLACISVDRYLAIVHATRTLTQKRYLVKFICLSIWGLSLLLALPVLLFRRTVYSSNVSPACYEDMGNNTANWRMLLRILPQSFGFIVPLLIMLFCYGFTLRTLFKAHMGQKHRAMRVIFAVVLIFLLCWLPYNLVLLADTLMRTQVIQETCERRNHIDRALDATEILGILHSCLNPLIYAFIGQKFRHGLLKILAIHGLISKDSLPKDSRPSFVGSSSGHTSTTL
Protocol: (§1) SX-682 contains a boronic acid moiety that has the potential to form a transient covalent linkage with hydroxyl-bearing amino acid side chains in the binding site of its protein target.
(§2) In order to test this hypothesis, RBL cells (10^7 cells/mL) stably transfected with either CXCR1 or CXCR2 were (1) incubated with SX-682 at various concentrations for 30 minutes at 37°C, (2) washed and resuspended in assay buffer (RPMI/2% serum) at room temperature, and (3) assayed for CXCL8-mediated calcium response at time points up to 12 h after inhibitor washout. The concentrations of SX-682 tested were 0 (positive control), 0 (negative control), 0.4, 2, and 10 µM. At 30 minutes before each time point, a 56.25 µL aliquot of the cells were removed and loaded for 30 minutes at room temperature in the dark with FLIPR-3 reagent (262.5 µl per tube). Following FLIPR-3 incubation, cells were assayed for CXCL8 mediated intracellular calcium release as described in Pharmacology Example 1.

[6] = system: isolated human neutrophils; assay: Inhibition of CXCL8-mediated intracellular calcium release, isolated human neutrophils; type: cell-based; conditions: Neutrophil; human neutrophils (Human PMNs); CXCL8 25 nM; mean ± SE, n = 4
Protocol: (§3) Briefly, cells (either isolated human neutrophils or RBL cells stably transfected with either CXCR1 or CXCR2) were suspended in HBSS^- (without Ca^2+ and Mg^2+) containing 10 mM HEPES and FLIPR Calcium 3 dye (3.1 x 10^7 cells in total volume 1.7 mL). Cells were aliquoted (200 µL of the cell suspension per tube, 8 tubes total) and 2 µL of the designated compound (with appropriate dilutions) were added to each of 6 tubes. As controls, 2 µL of DMSO (1% final concentration) were added to 2 other tubes. Cells were incubated for 30 min at 37 °C. After dye loading, tubes were centrifuged at 6,000 rpm for 1 min, supernatant was removed and the cell pellet was re-suspended in 200 µL of HBSS^+ (with Ca^2+ and Mg^2+) containing 10 mM HEPES. […] The cell suspension was aliquoted into a 96-well Reading Plate (Coming) in a volume of 90 µL (10^5 cells/well). […] After 15 sec of reading the basal level of fluorescence by FlexStation II, 10 µL of CXCL8 or HBSS^-were automatically transferred from the Compound Plate into the Reading Plate (final concentration of CXCL8 was 25 nM). Changes in fluorescence were monitored (λex = 485 nm, λem = 525 nm) every 5 s for 240 to 500 s at room temperature.
(§4) The maximum change in fluorescence, expressed in arbitrary units over baseline (Max-Min), was used to determine the CXCL8 response. […]

[7] = biological target: T2, CXCR1 (Homo sapiens, UniProt P25024); assay: Wash-resistant inhibition of CXCL8-mediated calcium flux after inhibitor washout, CXCR1 RBL cells; type: cell-based; conditions: RBL cells stably transfected with CXCR1; 30 minutes incubation at 37°C with 0.4, 2, 10 µM, then washout; time points up to 12 h
T2 construct: expressed in transfected cells; host or cells: RBL cells (stably transfected)
T2 sequence (P25024 1-350): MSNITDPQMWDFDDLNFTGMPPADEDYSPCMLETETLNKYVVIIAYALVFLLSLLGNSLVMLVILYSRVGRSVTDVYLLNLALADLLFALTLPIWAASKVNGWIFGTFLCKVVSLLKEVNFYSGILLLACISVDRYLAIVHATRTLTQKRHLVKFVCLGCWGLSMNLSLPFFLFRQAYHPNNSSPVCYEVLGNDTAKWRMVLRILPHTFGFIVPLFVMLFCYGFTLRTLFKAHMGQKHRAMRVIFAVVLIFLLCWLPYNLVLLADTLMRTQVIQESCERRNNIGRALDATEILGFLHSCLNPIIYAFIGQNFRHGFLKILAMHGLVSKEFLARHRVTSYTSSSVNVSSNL
Protocol: as §1, §2

[8] = biological target: T1, CXCR2; assay: Inhibition of CXCL8-mediated intracellular calcium release, RBL cells stably transfected with CXCR2; type: cell-based; conditions: CXCL8 25 nM, mean ± SE, n = 4
Protocol: as §3, §4

[9] = biological target: T2, CXCR1; assay: Inhibition of CXCL8-mediated intracellular calcium release, RBL cells stably transfected with CXCR1; type: cell-based; conditions: CXCL8 25 nM, mean ± SE, n = 4
Protocol: as §3, §4

[10] = 37°C, 2 mM NADPH, pH 7.4, first-order decay model
[11] = 5 µM, incubation at 37°C, LC-MS/MS detection

Row | Compound | t½ (Half-life) [1, 10] [h] | t½ [2, 11] [h] | influx of neutrophils into the lungs (BALF) as compared to control rats treated with vehicle only [3] | activity on neutrophils in vivo [4] | fold reduction in plasma half-life ([2]; structural comparison with sulfur / F3CO-bearing cogeners) [fold] | inhibition of CXCL8-mediated intracellular calcium flux sustained after washout [5] | IC50 [6] [nM] | fold larger half life than SX-671 or SX-576 [1] [fold] | half-life ([1]; 37°C, 2 mM NADPH, pH 7.4, first-order decay model, read-out: t½ (Half-life)) [h] | inhibition of CXCL8-mediated intracellular calcium flux sustained after washout [7] | half-life at 5 µM ([2]; 5 µM, incubation at 37°C, LC-MS/MS detection, read-out: t½) [h] | inhibition of neutrophil chemotaxis, comparison of the two inhibitors tested ([3]; SX-682 vs SX-576, each 1 mg/kg intravenously, ozone exposed rats) | inhibition of neutrophil influx into the BALF sustained after a single dose ([3]; single dose of 1 mg/kg intravenously, ozone exposed rats) [h] | IC50 [8] [nM] | IC50 [9] [nM]
1 | O=C(Nc1ccc(F)cc1)c1ccc(SCc2cc(OC(F)(F)F)ccc2B(O)O)nc1 [SX-576, reference compound] | 0.833 | 8.88 | significantly decreased the influx of neutrophils | both inhibitory and agonist activity on neutrophils were achieved | – | – | – | – | – | – | – | – | – | – | –
2 | O=C(Nc1ccc(F)cc1)c1ccc(SCc2ccccc2B(O)O)nc1 [SX-517] | 6.75 | 1.88 | – | both inhibitory and agonist activity on neutrophils were achieved | 5 | – | – | – | – | – | – | – | – | – | –
3 | O=C(Nc1ccc(F)cc1)c1cnc(SCc2cc(OC(F)(F)F)ccc2B(O)O)nc1 [SX-682, 2-(2-Boronic acid-5-trifluoromethoxy-benzylsulfanyl)-pyrimidine-5-carboxylic acid (4-fluoro-phenyl)-amide] | – | – | significantly decreased the influx of neutrophils | – | – | at least 12 hours | 55 ± 6 | 6 | 5.42 | at least 12 hours | 11.6 | markedly more robust inhibition of neutrophil chemotaxis | 24 | 20 ± 2 | 42 ± 3

Reference: patent EP3027627B1, “2-[5-[N-(4-FLUOROPHENYL)CARBAMOYL]PYRIMIDIN-2-YLSULFANYLMETHYL]-4-(TRIFLUOROMETHOXY)PHENYL]BORONIC ACID” (Syntrix Biosystems Inc., priority 2013, dated 2015)
